# Assay results from US20210369720A1, “SYNERGISTIC COMPOSITION HAVING NEUROPROTECTIVE PROPERTIES AND METHODS OF USE THEREOF” (Rutgers, The State University of New Jersey, priority 2018, published 2021).
# Experiments:
# [1] = molecular target: T1, PP2A methylesterase (PME-1) (Homo sapiens, UniProt Q9Y570); conditions: cited from earlier work
# T1 sequence (Q9Y570 1-386): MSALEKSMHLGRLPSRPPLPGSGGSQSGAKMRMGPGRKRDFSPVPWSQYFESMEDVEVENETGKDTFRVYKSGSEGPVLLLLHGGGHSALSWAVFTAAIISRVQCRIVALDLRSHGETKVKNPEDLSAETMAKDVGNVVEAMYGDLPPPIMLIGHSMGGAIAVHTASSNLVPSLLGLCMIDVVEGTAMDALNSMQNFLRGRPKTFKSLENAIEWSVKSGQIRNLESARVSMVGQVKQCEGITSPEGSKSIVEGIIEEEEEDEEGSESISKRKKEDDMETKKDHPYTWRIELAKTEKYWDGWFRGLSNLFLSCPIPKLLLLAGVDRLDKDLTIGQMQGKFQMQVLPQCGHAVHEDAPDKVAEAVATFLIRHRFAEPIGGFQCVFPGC
# Syn^Tg mice [2] = assay: Morris Water Maze, Syn^Tg mice; assay type: in vivo; conditions: EHT 12 mg/kg/day in chow and/or caffeine 50 mg/kg/day in drinking water from weaning until six months of age, vs untreated Syn^Tg mice
# Source text: (§1) Thy1-α-synuclein transgenic mice (Syn^Tg) on BDF1 background overexpressing human wild-type α-synuclein under the control of the Thy1 promoter were maintained by mating heterozygous transgenic females with WT BDF1 males (Rockenstein E, et al. (2002) Differential neuropathological alterations in transgenic mice expressing alpha-synuclein from the platelet-derived growth factor and Thy-1 promoters. J Neurosci Res 68(5):568-578). BDF1 mice (mixed C57BL/6-DBA/2) were generated every three months by mating female C57BL/6 (The Jackson Laboratory) and male DBA/2 mice (Charles River). Experiments were performed with male transgenic mice and their WT littermates. […] Wild-type littermates received regular water and control chow. […] At two months of age, mice were inoculated with α-Syn PFF unilaterally in the striatum. These treatments continued throughout the experiment until animals were sacrificed. Mice were weighed and their food and water intake was quantified weekly. Animals were housed 2-5/cage in an AAALAC approved facility in a temperature- and humidity-controlled environment under a 12-hour light/dark cycle and were maintained on a diet of lab chow and water ad libitum. […]
# [3] = system: α-Syn PFF inoculated WT mice; assay: Morris Water Maze, α-Syn PFF inoculated WT mice; assay type: in vivo; conditions: EHT 12 mg/kg/day and/or caffeine 50 mg/kg/day, 6 months post-inoculation, test also not affected by PFF inoculation
# Source text: as §1
# PP2A = assay: Western blot of PP2A methylation, striatal tissue lysates of Syn^Tg mice; assay type: in vivo; conditions: EHT 12 mg/kg/day and/or caffeine 50 mg/kg/day
# Source text: Thy1-α-synuclein transgenic mice (Syn^Tg) on BDF1 background overexpressing human wild-type α-synuclein under the control of the Thy1 promoter were maintained by mating heterozygous transgenic females with WT BDF1 males (Rockenstein E, et al. (2002) Differential neuropathological alterations in transgenic mice expressing alpha-synuclein from the platelet-derived growth factor and Thy-1 promoters. J Neurosci Res 68(5):568-578). BDF1 mice (mixed C57BL/6-DBA/2) were generated every three months by mating female C57BL/6 (The Jackson Laboratory) and male DBA/2 mice (Charles River). Experiments were performed with male transgenic mice and their WT littermates. […] Wild-type littermates received regular water and control chow. […] At two months of age, mice were inoculated with α-Syn PFF unilaterally in the striatum. These treatments continued throughout the experiment until animals were sacrificed. Mice were weighed and their food and water intake was quantified weekly. Animals were housed 2-5/cage in an AAALAC approved facility in a temperature- and humidity-controlled environment under a 12-hour light/dark cycle and were maintained on a diet of lab chow and water ad libitum. All animal procedures were approved by the Rutgers-Robert Wood Johnson Medical School Institutional Animal Care and Use Committee and were performed according to the National Institutes of Health Guide for the Care and Use of Laboratory Animals.
# Human neuroblastoma SH-SY5Y cells were cultured in DMEM-F12 with 10% FBS. At 50% confluency, cells were treated with 1 gg/ml mouse α-Syn PFF in DMEM-F12 with 1% FBS for 7 days. Medium was refreshed every 3 days. Cell harvesting was done with 2% SDS in PBS supplemented with protease inhibitor (Millipore) and phosphatase inhibitor (Sigma-Aldrich). Lysates were sonicated and boiled at 95° C. for 5 minutes. Protein concentration was determined by bicinchonic acid (BCA) method (Pierce), equal amount of protein was separated on 5-20% SDS-PAGE gel (Genescript) and transferred to nitrocellulose or PVDF membrane (Biorad). Following transfer, membranes were blocked for 1 hour at room temperature in blocking buffer (Li-Cor) or 5% (w/v) BSA/TBS-Tween 0.1% (v/v). Primary antibodies were diluted in blocking buffer or 5% (w/v) BSA/TBS-Tween 0.1% (v/v) and incubated with the membranes at 4° C. overnight. Membranes were washed three times in TBS-Tween and incubated in diluted IRDye 800CW or HRP conjugated secondary antibody for 1 hour at room temperature. Following washing, membranes were scanned by Li-Cor Odyssey CLx infrared imaging system or treated with the Western Lightning ECL-plus reagents (PerkinElmer) and exposed to autoradiography films (LabScientific).
# Syn^Tg mice [4] = assay: Wire Hang test, Syn^Tg mice; assay type: in vivo; conditions: EHT 12 mg/kg/day in chow and/or caffeine 50 mg/kg/day in drinking water from weaning until six months of age, vs untreated Syn^Tg mice
# Source text: as §1
# Syn^Tg mice [5] = assay: Rotarod, Syn^Tg mice; assay type: in vivo; conditions: EHT 12 mg/kg/day in chow and/or caffeine 50 mg/kg/day in drinking water from weaning until six months of age, vs untreated Syn^Tg mice
# Source text: as §1
# Iba-1 = assay: Immunohistochemical staining of Iba-1 in the striatum, α-Syn PFF inoculated WT mice; assay type: in vivo; conditions: EHT 12 mg/kg/day and/or caffeine 50 mg/kg/day, vs untreated α-Syn PFF inoculated group
# Source text: as §1
structure (smiles),measurement,setting,value
"CCCCCCCCCCCCCCCCCCCC(=O)NCCc1c[nH]c2ccc(O)cc12 [EHT, eicosanoyl-5-hydroxytryptamide]",inhibition of the activity of the PP2A methylesterase (PME-1),[1],inhibit the activity
same,performance on the Morris Water Maze,Syn^Tg mice [2],did not improve performance
same,Learning and memory task on the Morris Water Maze,[3],not affected
same,ratio between methyl- and demethyl-PP2A,PP2A,did not change
same,Demethylated PP2A (demethyl-PP2A) levels,PP2A; normalized to total PP2A,not affected
same,Methylated PP2A (Methyl-PP2A) levels,PP2A; normalized to total PP2A,did not change
same,performance on the wire hang test,Syn^Tg mice [4],did so only on the Wire Hang test
same,performance on the rotarod,Syn^Tg mice [5],did not improve performance
same,microglial activation (Iba-1) in the contralateral striatum,Iba-1,only a partial effect that was statistically insignificant
same,microglial activation (Iba-1) in the ipsilateral striatum,Iba-1,only a partial effect that was statistically insignificant
